Patent US20050191282A1, “Method of cryopreserving pancreatic islet cells” (priority 2004, published 2005)

Legend:
[1] = test system: isolated rat islets; assay: Glucose-stimulated insulin secretion by perifused islets after cryopreservation; type: cell-based
Protocol: FIG. 2 graphs glucose stimulation of insulin secretion in islets cryopreserved with different cryoprotectants. After one week of cryopreservation, islets were thawed and cultured overnight before being tested for response to 16.7 mM glucose stimulation. The 16.7 mM glucose stimulated insulin secretion was assessed by normalizing data as percent basal insulin secretion for each group of islets. Data represent mean±SEM.
The present invention is based on the hypothesis that the low molecular weight (MW) compounds, DMSO and glycerol, permeate the cell and interact hydrophobically with intracellular proteins thereby perturbing the cyto-skeletal architecture of frozen cells, and diminishing islet cell integrity and function. […] Using a programmable temperature controller, samples of pre-counted islets were then frozen under liquid nitrogen, in the presence of either 2M DMSO (MW=0.078 kD), 3M glycerol (MW=0.092 kD), 5% polyethylene glycol (PEG, MW=20 kD), or 10% polyvinylpyrrolidone (PVP, MW=40 kD), and stored at −80° C. for 1 week. Following thawing, intact islet recovery was determined by islet counting after Dithizone staining. Islet function was assessed by determination of glucose-stimulated insulin secretion in perifusion experiments with Krebs-Ringer bicarbonate buffer, pH 7.4, containing either basal (3.3 mM) or high (16.7 mM) glucose concentrations. […]

[2] = test system: islets; conditions: DMSO as cryoprotectant, compared to freshly isolated islets; cited from earlier work
[3] = test system: isolated rat islets; assay: Recovery of intact islets after cryopreservation and thawing (islet counting after Dithizone staining); type: cell-based; parameters: key: Severe = +++; Mild = +; conditions: 2M DMSO, 3M glycerol, 5% PEG or 10% PVP
Protocol: The present invention is based on the hypothesis that the low molecular weight (MW) compounds, DMSO and glycerol, permeate the cell and interact hydrophobically with intracellular proteins thereby perturbing the cyto-skeletal architecture of frozen cells, and diminishing islet cell integrity and function. Isolated rat islets were cultured overnight (16-24 hr) at 37° C., in RPMI medium supplemented with 10% fetal calf serum and 1% mixture of Penicillin/Streptomycin. Using a programmable temperature controller, samples of pre-counted islets were then frozen under liquid nitrogen, in the presence of either 2M DMSO (MW=0.078 kD), 3M glycerol (MW=0.092 kD), 5% polyethylene glycol (PEG, MW=20 kD), or 10% polyvinylpyrrolidone (PVP, MW=40 kD), and stored at −80° C. for 1 week. Following thawing, intact islet recovery was determined by islet counting after Dithizone staining. Islet function was assessed by determination of glucose-stimulated insulin secretion in perifusion experiments with Krebs-Ringer bicarbonate buffer, pH 7.4, containing either basal (3.3 mM) or high (16.7 mM) glucose concentrations. After thawing samples of frozen islets, the mean±SEM % intact islet recovery was higher with PVP compared to DMSO (82±4.6 versus 62.7±3.1% respectively, p<0.005, n=9). […]

C[S+](C)[O-] [DMSO, Dimethylsulfoxide]
function of cryopreserved islets compared to freshly isolated islets [1]: impaired | loss in the number and function of islets after thawing [2]: 30-50% | Fragment (fragmentation of islets after thawing) [3]: +++

OCC(O)CO [GLY, glycerol]
function of cryopreserved islets compared to freshly isolated islets [1]: impaired | Fragment (fragmentation of islets after thawing) [3]: +++
